Source: PubChem BioAssay (NCI)
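Dose response: 5 concentrations. Exposure: 48 h. Format: 96-well plates. Endpoint: linear interpolation; highest concentration if not reached. TGI: total growth inhibition.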

Columns and labels:
Assay in all cases: growth of human tumour cells (NCI), 48 h
[1] = test system: 786-0 renal
[2] = test system: A498 renal
[3] = test system: A549 NSCLC
[4] = test system: ACHN renal
[5] = test system: BT-549 breast
[6] = test system: CAKI-1 renal
[7] = test system: COLO 205 colon
[8] = test system: DU-145 prostate
[9] = test system: HCC-2998 colon
[10] = test system: HCT-116 colon
[11] = test system: HCT-15 colon
[12] = test system: HL-60(TB) leukemia
[13] = test system: HOP-62 NSCLC
[14] = test system: HOP-92 NSCLC
[15] = test system: HS 578T breast
[16] = test system: HT29 colon
[17] = test system: IGROV1 ovarian
[18] = test system: KM12 colon
[19] = test system: LOX IMVI melanoma
[20] = test system: M14 melanoma
[21] = test system: MALME-3M melanoma
[22] = test system: MCF7 breast
[23] = test system: MDA-MB-231 breast
[24] = test system: MDA-MB-435
[25] = test system: MDA-N
[26] = test system: MOLT-4 leukemia
[27] = test system: NCI-H226 lung
[28] = test system: NCI-H23 lung
[29] = test system: NCI-H460 lung
[30] = test system: NCI-H522 lung
[31] = test system: NCI/ADR-RES ovarian
[32] = test system: OVCAR-3 ovarian
[33] = test system: OVCAR-4 ovarian
[34] = test system: OVCAR-5 ovarian
[35] = test system: OVCAR-8 ovarian
[36] = test system: PC-3 prostate
[37] = test system: RPMI-8226 leukemia
[38] = test system: RXF 393 renal
[39] = test system: SF-268 CNS
[40] = test system: SF-295 CNS
[41] = test system: SF-539 CNS
[42] = test system: SK-MEL-2 melanoma
[43] = test system: SK-MEL-28 melanoma
[44] = test system: SK-MEL-5 melanoma
[45] = test system: SK-OV-3 ovarian
[46] = test system: SN12C renal
[47] = test system: SNB-19 CNS
[48] = test system: SNB-75 CNS
[49] = test system: SR leukemia
[50] = test system: SW-620 colon
[51] = test system: T-47D breast
[52] = test system: TK-10 renal
[53] = test system: U251 CNS
[54] = test system: UACC-257 melanoma
[55] = test system: UACC-62 melanoma
[56] = test system: UO-31 renal

Question: What does the source list for `Fc1ccc2c(c1)nc1n2C(c2c(Cl)cccc2Cl)SC1` (configuration not stated)?
Answer: TGI [1]: 29.5 µM; TGI [2]: 35.4 µM; TGI [3]: 28.2 µM; TGI [4]: 30.7 µM; TGI [5]: 30.5 µM; TGI [6]: 25 µM; TGI [7]: 32.9 µM; TGI [8]: 30.6 µM; TGI [9]: 29.9 µM; TGI [10]: 18.3 µM; TGI [11]: 24.4 µM; TGI [12]: 62.3 µM; TGI [13]: 29.2 µM; TGI [14]: 20 µM; TGI [15]: 34.7 µM; TGI [16]: 29.5 µM; TGI [17]: 27.1 µM; TGI [18]: 25.8 µM; TGI [19]: 28.2 µM; TGI [20]: 29.9 µM; TGI [21]: 25.6 µM; TGI [22]: 32.2 µM; TGI [23]: 30.5 µM; TGI [24]: 25 µM; TGI [25]: 24.5 µM; TGI [26]: 52.5 µM; TGI [27]: 37.7 µM; TGI [28]: 26.2 µM; TGI [29]: 20.8 µM; TGI [30]: 28.7 µM; TGI [31]: 27.7 µM; TGI [32]: 26 µM; TGI [33]: 29.7 µM; TGI [34]: 28.9 µM; TGI [35]: 29 µM; TGI [36]: 28.3 µM; TGI [37]: 87.7 µM; TGI [38]: 31.9 µM; TGI [39]: 29.6 µM; TGI [40]: 26.8 µM; TGI [41]: 34.8 µM; TGI [42]: 29.7 µM; TGI [43]: 24.3 µM; TGI [44]: 21.1 µM; TGI [45]: 28.3 µM; TGI [46]: 31 µM; TGI [47]: 27.1 µM; TGI [48]: 25.9 µM; TGI [49]: > 100 µM; TGI [50]: 27.6 µM; TGI [51]: 38.4 µM; TGI [52]: 31.6 µM; TGI [53]: 25.8 µM; TGI [54]: 34.3 µM; TGI [55]: 26.2 µM; TGI [56]: 28.7 µM

Question: What does the source list for `O=C(/C=C/c1ccccc1)Oc1cccc(O)c1`?
Answer: TGI [1]: > 100 µM; TGI [2]: > 100 µM; TGI [3]: > 100 µM; TGI [4]: > 100 µM; TGI [5]: > 100 µM; TGI [6]: > 100 µM; TGI [7]: > 100 µM; TGI [8]: > 100 µM; TGI [9]: > 100 µM; TGI [10]: 31.8 µM; TGI [11]: 34.7 µM; TGI [12]: 41.2 µM; TGI [13]: > 100 µM; TGI [14]: > 100 µM; TGI [15]: > 100 µM; TGI [16]: > 100 µM; TGI [17]: 43.6 µM; TGI [18]: 46.3 µM; TGI [19]: > 100 µM; TGI [20]: > 100 µM; TGI [21]: > 100 µM; TGI [22]: > 100 µM; TGI [23]: > 100 µM; TGI [24]: > 100 µM; TGI [25]: > 100 µM; TGI [26]: 21.8 µM; TGI [27]: > 100 µM; TGI [28]: > 100 µM; TGI [29]: > 100 µM; TGI [30]: 29.5 µM; TGI [31]: > 100 µM; TGI [32]: > 100 µM; TGI [33]: > 100 µM; TGI [34]: > 100 µM; TGI [35]: > 100 µM; TGI [36]: > 100 µM; TGI [37]: > 100 µM; TGI [38]: > 100 µM; TGI [39]: 62.6 µM; TGI [40]: 34.3 µM; TGI [41]: > 100 µM; TGI [42]: > 100 µM; TGI [43]: 66.8 µM; TGI [44]: > 100 µM; TGI [45]: > 100 µM; TGI [46]: > 100 µM; TGI [47]: 76.1 µM; TGI [48]: > 100 µM; TGI [49]: 48.6 µM; TGI [50]: 37.9 µM; TGI [51]: > 100 µM; TGI [52]: > 100 µM; TGI [53]: > 100 µM; TGI [54]: > 100 µM; TGI [55]: > 100 µM; TGI [56]: > 100 µM
